Results on 3 compounds are retold here after US8119681B2, “2-[1-phenyl-5-hydroxy or methoxy-4alpha-methyl-hexahydrocyclopenta [ƒ]indazole-5-YL]ethyl phenyl derivatives as glucocorticoid receptor ligands” (Merck Sharp & Dohme Corp., priority 2006, dated 2012).

In the test the target is T1, human GR (Homo sapiens, UniProt P04150).
T1 sequence (P04150 1-777): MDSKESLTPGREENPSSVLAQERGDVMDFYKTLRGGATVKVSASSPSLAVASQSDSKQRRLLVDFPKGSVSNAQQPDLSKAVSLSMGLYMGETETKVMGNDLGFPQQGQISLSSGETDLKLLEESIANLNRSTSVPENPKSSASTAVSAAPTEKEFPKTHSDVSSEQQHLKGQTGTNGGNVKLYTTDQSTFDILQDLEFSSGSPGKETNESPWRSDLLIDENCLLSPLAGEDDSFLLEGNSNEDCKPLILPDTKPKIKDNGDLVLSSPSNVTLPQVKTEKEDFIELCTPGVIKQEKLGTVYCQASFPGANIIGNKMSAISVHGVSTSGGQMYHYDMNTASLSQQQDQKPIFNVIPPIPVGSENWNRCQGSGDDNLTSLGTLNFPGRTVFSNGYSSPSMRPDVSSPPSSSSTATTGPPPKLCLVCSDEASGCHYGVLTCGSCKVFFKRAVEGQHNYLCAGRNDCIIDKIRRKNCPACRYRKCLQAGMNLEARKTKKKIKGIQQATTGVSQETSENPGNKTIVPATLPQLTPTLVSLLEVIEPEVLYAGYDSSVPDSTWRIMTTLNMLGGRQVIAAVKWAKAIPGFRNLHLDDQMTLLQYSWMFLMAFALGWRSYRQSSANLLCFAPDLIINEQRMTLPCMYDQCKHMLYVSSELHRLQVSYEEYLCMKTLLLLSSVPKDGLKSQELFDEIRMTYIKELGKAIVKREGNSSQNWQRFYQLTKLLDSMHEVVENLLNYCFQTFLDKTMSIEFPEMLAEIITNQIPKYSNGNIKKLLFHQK
In words: Transrepression Assay (GITAR), TNFα-β-lactamase reporter gene in U937 cells. Format: cell-based. Details: U937 cells contain an endogenous glucocorticoid receptor (GR); endogenous in cells; host or cells: U937 cells stably transfected with the TNF-α promoter/β-lactamase reporter only. An outline of the steps: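 Reporter readout used CCF2-AM loading for 70–90 min at room temperature after overnight (~18 h, 37 °C) PMA (5 ng/ml final) and LPS (100 ng/ml final) stimulation of compound-treated (30–45 min) TNFα-β-lactamase U937 cells expressing native GR. Activity was normalised to 100 nM dexamethasone repression.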
For orientation: A reporter such as luciferase makes a cellular process visible.

Where [1] appears, read: U-937, 100 nM dexamethasone = 100% activity, read-out: maximal activity in the transrepression assay.

Where two headings read alike, the source gives them in different places.

Regarding `C[C@]12Cc3cnn(-c4ccc(F)cc4)c3C=C1CC[C@@]2(O)CCc1cc(F)ccc1CC(N)=O` [Example 193, 2-(4-fluoro-2-{2-[(4αS,5R)-1-(4-fluorophenyl)-5-hydroxy-4α-methyl-1,4,4α,5,6,7-hexahydrocyclopenta[f]indazol-5-yl]ethyl}phenyl)acetamide], the Emax under setting [1] fell in the range of 5 to 100%.
Still for that read-out and setting: the figure for `C[C@]12Cc3cnn(-c4ccc(F)c(F)c4)c3C=C1CC[C@@]2(O)CCc1ccccc1CC(N)=O` [Example 195, 2-(2-{2-[(4αS,5R)-1-(3,4-difluorophenyl)-5-hydroxy-4α-methyl-1,4,4α,5,6,7-hexahydrocyclopenta[f]indazol-5-yl]ethyl}phenyl)acetamide] is 5 to 100%.
`C[C@]12Cc3cnn(-c4ccc(F)cc4)c3C=C1CC[C@@]2(O)CCc1ccccc1C(O)(C(N)=O)C1CC1` (stereo partly drawn) [Example 200, 2-cyclopropyl-2-(2-{2-[(4αS,5R)-1-(4-fluorophenyl)-5-hydroxy-4α-methyl-1,4,4α,5,6,7-hexahydrocyclopenta[f]indazol-5-yl]ethyl}phenyl)-2-hydroxyacetamide]: the Emax (U-937, read-out: maximal activity in the transrepression assay) lay in the range of 5 to 100%.
